Measurements reported in the supplement of paper PMC10307832.

How the values were obtained:
Assay in all cases: relative viability (nuclei count vs DMSO), 5 days (fraction); higher = more cells survive
[1] = compound: O=C(CCCCCCNC(=O)c1cnc(N(c2ccccc2)c2ccccc2)nc1)NO [Ricolinostat] + Cc1nc(NC(=O)N2CCC[C@H]2C(N)=O)sc1-c1ccnc(C(C)(C)C(F)(F)F)c1 [Alpelisib] (partner 2 µM)
Procedure, shortened: (§1)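 Medians of duplicate plates are given as relative viability. That measure is the nuclei count in treated wells divided by the count in vehicle wells. Counts were taken on 4× images of lung cancer cell lines in 1536-well plates, 5 days after pin-tool dosing the day after seeding with one drug alone or a fixed anchor-drug dose plus five library-drug doses (not always all listed) in √10 steps.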

[2] = compound: CC1=CN2C(=O)C=C(N=C2C(=C1)C(C)NC3=CC=CC=C3)N4CCOCC4 [TGX 221] + Cc1nc(NC(=O)N2CCC[C@H]2C(N)=O)sc1-c1ccnc(C(C)(C)C(F)(F)F)c1 [Alpelisib] (partner 2 µM)
Procedure, shortened: as §1

[3] = compound: C1=CC=C(C(=C1)C2=CC=C(C=C2)C3=CSC4=C3C(=C(C(=O)N4)C#N)O)O + Cc1nc(NC(=O)N2CCC[C@H]2C(N)=O)sc1-c1ccnc(C(C)(C)C(F)(F)F)c1 [Alpelisib] (partner 2 µM)
Procedure, shortened: as §1

[4] = compound: CC1=CN2C(=O)C=C(N=C2C(=C1)C(C)NC3=CC=CC=C3)N4CCOCC4 [TGX 221] + C[C@@H](Oc1cc(-c2cnn(C3CCNCC3)c2)cnc1N)c1c(Cl)ccc(F)c1Cl [Crizotinib] (partner 1 µM)
Procedure, shortened: as §1

Row | Cell Line | relative viability ([1]; first compound 0.08 µM) | relative viability ([1]; first compound 0.253 µM) | relative viability ([1]; first compound 0.8 µM) | relative viability ([1]; first compound 2.53 µM) | relative viability ([2]; first compound 0.08 µM) | relative viability ([2]; first compound 0.253 µM) | relative viability ([2]; first compound 0.8 µM) | relative viability ([2]; first compound 2.53 µM) | relative viability ([2]; first compound 8 µM) | relative viability ([3]; first compound 0.08 µM) | relative viability ([3]; first compound 0.253 µM) | relative viability ([3]; first compound 0.8 µM) | relative viability ([3]; first compound 2.53 µM) | relative viability ([3]; first compound 8 µM) | relative viability ([4]; first compound 0.08 µM) | relative viability ([4]; first compound 0.253 µM) | relative viability ([4]; first compound 0.8 µM) | relative viability ([4]; first compound 2.53 µM) | relative viability ([4]; first compound 8 µM)
1 | NCI-H3122 | 0.514 | 0.942 | 0.785 | 0.964 | 0.758 | 0.735 | 0.717 | 0.681 | 0.787 | 0.795 | 0.909 | 0.89 | 0.844 | 0.902 | 0.278 | 0.227 | 0.281 | 0.294 | 0.356
2 | HOP-62 | 0.932 | 0.901 | 0.844 | 0.848 | 0.899 | 0.958 | 0.827 | 1.13 | 1.11 | 0.905 | 0.774 | 0.709 | 1.05 | 0.573 | 0.893 | 0.873 | 0.992 | 0.953 | 0.88
3 | LCLC-103H | 0.814 | 0.971 | 0.883 | 0.959 | 1.03 | 0.896 | 0.776 | 0.743 | 0.654 | 0.948 | 0.881 | 1.05 | 0.981 | 0.869 | 1.12 | 1.06 | 0.986 | 0.959 | 0.876
4 | LU99A | 0.438 | 0.512 | 0.362 | 0.437 | 0.524 | 0.443 | 0.494 | 0.513 | 0.57 | 0.613 | 0.5 | 0.538 | 0.507 | 0.527 | 0.493 | 0.577 | 0.516 | 0.517 | 0.563
5 | HCC-44 | 0.694 | 0.743 | 0.725 | 0.612 | 0.784 | 0.667 | 0.632 | 0.597 | 0.473 | 0.661 | 0.796 | 0.767 | 0.86 | 0.663 | 0.83 | 0.794 | 0.875 | 0.758 | 0.733
6 | NCI-H2405 | 0.524 | 0.805 | 0.889 | 1.08 | 0.586 | 0.615 | 0.582 | 0.531 | 0.463 | 0.761 | 0.834 | 0.867 | 0.715 | 0.715 | 0.792 | 0.834 | 0.769 | 0.757 | 0.671
7 | PC-14 | 0.821 | 0.903 | 0.917 | 0.66 | 1.01 | 0.822 | 0.817 | 0.919 | 0.857 | 0.761 | 1.17 | 0.853 | 0.981 | 0.71 | 0.934 | 0.845 | 0.865 | 0.85 | 0.885
8 | IA-LM | 0.616 | 0.819 | 0.623 | 0.363 | 0.753 | 0.818 | 0.792 | 0.614 | 0.589 | 0.549 | 0.879 | 0.626 | 0.75 | 0.374 | 0.879 | 0.711 | 0.903 | 0.864 | 0.788
9 | COR-L23 | 0.651 | 0.689 | 0.571 | 0.407 | 0.807 | 0.659 | 0.759 | 0.722 | 0.742 | 0.832 | 0.998 | 0.702 | 0.92 | 0.63 | 0.597 | 0.523 | 0.727 | 0.597 | 0.619
10 | NCI-H1666 | 0.938 | 0.895 | 0.997 | 0.463 | 0.855 | 0.742 | 0.735 | 0.645 | 0.654 | 0.792 | 1.18 | 0.861 | 1.14 | 0.987 | 1 | 0.933 | 0.988 | 0.935 | 0.957
